The text below walks through data of patent US11174291B2, “Silstatin compounds” (Arizona Board of Regents on behalf of Arizona State …, priority 2015, dated 2021).

The subject of one data set is BXPC-3. In words: NCI sulforhodamine B growth inhibition, pancreas cancer cells. The conditions noted are these: BXPC3 pancreas, 48 h. The class given is cell-based, human. The procedure: (§1) Inhibition of human cancer cell growth was assessed using the National Cancer Institute's standard sulforhodamine B assay as previously described.^19In summary, cells in a 5% fetal bovine serum/RPMI1640 medium were inoculated in 96-well plates and incubated for 24 hrs. Next, serial dilutions of the compounds were added. After 48 h, the plates were fixed with trichloroacetic acid, stained with sulforhodamine B, and read with an automated microplate reader. A growth inhibition of 50% (GI50 or the drug concentration causing a 50% reduction in the net protein increase) was calcd from optical density data with Immunosoft software. Normal cells were treated in identical conditions. Normal human prostate CRL-2221 (PZ—HPV-7) was grown in MEM 10% FBS and normal human breast MCF-10A in MEGM kit.

A further data set relates to MCF-7. The experiment in a line: NCI sulforhodamine B growth inhibition, breast cancer cells. The class given is cell-based, human. To be noted: MCF-7 breast, 48 h. The procedure:
as §1

A further data set deals with SF268. The experiment in a line: NCI sulforhodamine B growth inhibition, CNS cancer cells. The conditions noted are these: 48 h. The class given is cell-based, human. The procedure:
as §1

Another data set deals with NCI-H460. The experiment in a line: NCI sulforhodamine B growth inhibition, lung cancer cells. The class given is cell-based, human. The conditions noted are these: 48 h. The procedure: as §1
In another data set the test system is KM20L2. In words: NCI sulforhodamine B growth inhibition, colon cancer cells. The conditions noted are these: 48 h. The class given is cell-based, human. The method, then: as §1
For a further data set, the system named is DU-145. The experiment in a line: NCI sulforhodamine B growth inhibition, prostate cancer cells. The class given is cell-based, human. To be noted: DU145 prostate, 48 h. The procedure: as §1
In data set [1] the test system is mini panel of cancer cell lines. The experiment in a line: Growth inhibition across the mini panel of cancer cell lines. The class given is cell-based, human. To be noted: mini panel of cancer cell lines (Table 1). The method, then:
as §1
The growth inhibition property of the silstatins and some intermediates were evaluated against a mini panel of cancer cell lines (Table 1).

The conditions of data set [2]: amide bond; 36-membered ring; 2 steps.

Take `CC(C)[C@@H]1NC(=O)[C@H](C)OC(=O)[C@@H](C(C)C)NC(=O)[C@@H](CC2CCCCC2)OC(=O)[C@H](C(C)C)NC(=O)[C@H](C)OC(=O)[C@@H](C(C)C)NC(=O)[C@@H](CC2CCCCC2)OC(=O)[C@H](C(C)C)NC(=O)[C@H](C)OC(=O)[C@@H](C(C)C)NC(=O)[C@@H](CC2CCCCC2)OC1=O` [Silstatin 4 (14a), Cyclo-[Val-D-Hcha-D-Val-Lac]3]: the “Growth inhibition of human cancer cell lines GI50” value in the data set with BXPC-3 came to 0.5 µg/mL; in the data set with MCF-7, 0.18 µg/mL; with SF268, 0.081 µg/mL; with NCI-H460, 0.4 µg/mL; with KM20L2, 0.18 µg/mL; in the data set on DU-145, 0.22 µg/mL. Also, in data set [1], the “Cancer cell growth inhibition, assessment in words” value (“Cancer cell growth inhibition” for short) is “marked reduction of cancer cell growth inhibition capability”.
Consider `CC(C)[C@@H]1NC(=O)[C@H](C)OC(=O)[C@@H](C(C)C)NC(=O)[C@@H](CC2CCCCC2)OC(=O)[C@H]([C@@H](C)O)NC(=O)[C@H](C)OC(=O)[C@@H](C(C)C)NC(=O)[C@@H](CC2CCCCC2)OC(=O)[C@H](C(C)C)NC(=O)[C@H](C)OC(=O)[C@@H](C(C)C)NC(=O)[C@@H](CC2CCCCC2)OC1=O` [Silstatin 5 (15a), Cyclo-{Thr-D-Hcha-D-Val-Lac-[Val-D-Hcha-D-Val-Lac]2}], for which the “Growth inhibition of human cancer cell lines GI50” value with BXPC-3 is 0.03 µg/mL; in the data set with MCF-7 it was 0.0031 µg/mL; with SF268, 0.0044 µg/mL; in the data set with NCI-H460 it was 0.021 µg/mL; in the data set with KM20L2 it was 0.0044 µg/mL; in the data set on DU-145, 0.005 µg/mL. For the same compound, the “Cancer cell growth inhibition” value in data set [1] is listed as “very high inhibitory activity”.
With `CC(C)[C@@H]1NC(=O)[C@H](C)OC(=O)[C@@H](C(C)C)NC(=O)[C@@H](CC2CCCCC2)OC(=O)[C@H](C(C)C)NC(=O)[C@H](C)OC(=O)[C@@H](C(C)C)NC(=O)[C@@H](CC2CCCCC2)OC(=O)[C@H](Cc2ccc(O)cc2)NC(=O)[C@H](C)OC(=O)[C@@H](C(C)C)NC(=O)[C@@H](CC2CCCCC2)OC1=O` [Silstatin 6 (15b), Cyclo-{Tyr-D-Hcha-D-Val-Lac-[Val-D-Hcha-D-Val-Lac]2}], the “Growth inhibition of human cancer cell lines GI50” value is 0.53 µg/mL in the data set with BXPC-3; 0.12 µg/mL with MCF-7; 0.05 µg/mL with SF268; 0.32 µg/mL with NCI-H460; 0.09 µg/mL in the data set with KM20L2; 0.22 µg/mL in the data set with DU-145. Also, in data set [1], the “Cancer cell growth inhibition” value was “marked reduction of cancer cell growth inhibition capability”.
Consider `CC(C)C[C@H]1OC(=O)[C@H](C(C)C)NC(=O)[C@H](C)OC(=O)[C@@H](C(C)C)NC(=O)[C@@H](CC(C)C)OC(=O)[C@H](C(C)C)NC(=O)[C@H](C)OC(=O)[C@@H](C(C)C)NC(=O)[C@@H](CC2CCCCC2)OC(=O)[C@H](Cc2ccc(O)cc2)NC(=O)[C@H](C)OC(=O)[C@@H](C(C)C)NC1=O` [Silstatin 8 (18b), Cyclo-{Tyr-D-Hcha-D-Val-Lac-[Val-D-Hica-D-Val-Lac]2}], for which the “Growth inhibition of human cancer cell lines GI50” value was 0.006 µg/mL in the data set with BXPC-3; 0.0011 µg/mL in the data set on MCF-7; 0.003 µg/mL with SF268; 0.004 µg/mL in the data set on NCI-H460; 0.0021 µg/mL in the data set on KM20L2; 0.0054 µg/mL with DU-145. Also, the “Cancer cell growth inhibition” value in data set [1] is reported as “rescuing the activity”.
In turn, Cyclo-[Val-D-Hcha-D-Val-Lac]3 yielded a ring closure, isolated yield in data set [2] of 23%.
On the same count and under the same terms, under Cyclo-[Val-D-Hica-D-Val-Lac]3 stands 28%; under “Cyclo-{Thr(tBu)-D-Hcha-D-Val-Lac-[Val-D-Hcha-D-Val-Lac]2}”, 29%.
